# In article PMC9855333, “1-(Arylsulfonyl-isoindol-2-yl)piperazines as 5-HT6R Antagonists: Mechanochemical Synthesis, In Vitro Pharmacological Properties and Glioprotective Activity” (Biomolecules, 2022):
# Experiments:
# [1] = tested on: 5-HT6R-operated Cdk5 signaling; assay: Cdk5-dependent neurite growth in NG108-15 cells transiently expressing 5-HT6R; format: cell-based; conditions: NG108-15 cells expressing 5-HT6R; for neurite length: treatment for 24 h (legend says 48 h), vehicle 16.95 ± 1.5 μm
# Procedure: NG108-15 cells were transfected with plasmids encoding either cytosolic GFP or a GFP-tagged 5-HT6R and grown on glass coverslips for 6 h. Then, cells were treated with either vehicle or the evaluated compounds. Neurite growth was measured on cells imaged using an AxioImagerZ1 microscope equipped with epifluorescence (Zeiss) using the Neuron J plugin of the ImageJ software (NIH). A detailed description is reported in the Supporting Information.
# 3. Procedure for evaluation of the effect of tested compounds on Cdk5-dependent neurite
# In line with previously reported methods, NG108-15 cells were transfected with plasmids encoding either cytosolic GFP or a GFP-tagged 5-HT6R in suspension using Lipofectamine 2000 (Life technologies) and plated on glass coverslips. Six hours after transfection, cells were treated with either DMSO (control), 3e, 3f and 3g or SB-258585 for 48 h. Cells were fixed in 4% paraformaldehyde (PFA) supplemented with 4% sucrose for 10 min. PFA fluorescence was quenched by incubating the cells in PBS containing 0.1 M glycine, prior to mounting in Prolong Gold antifade reagent (Thermo Fisher Scientific). Cells were imaged using an AxioImagerZ1 microscope equipped with epifluorescence (Zeiss), using a 20 × objective for cultured cells, and neurite length was assessed using the Neuron J plugin of the ImageJ software (NIH).
# [2] = target: T1, human 5-HT1A receptor (Homo sapiens, UniProt P08908); assay: Radioligand binding, [3H]-8-OH-DPAT displacement, HEK-293 cells; conditions: mean ± SEM, three independent binding experiments; read-out: Ki [nM] 5-HT1AR
# T1 construct: expressed in transfected cells
# T1 sequence (P08908 1-422): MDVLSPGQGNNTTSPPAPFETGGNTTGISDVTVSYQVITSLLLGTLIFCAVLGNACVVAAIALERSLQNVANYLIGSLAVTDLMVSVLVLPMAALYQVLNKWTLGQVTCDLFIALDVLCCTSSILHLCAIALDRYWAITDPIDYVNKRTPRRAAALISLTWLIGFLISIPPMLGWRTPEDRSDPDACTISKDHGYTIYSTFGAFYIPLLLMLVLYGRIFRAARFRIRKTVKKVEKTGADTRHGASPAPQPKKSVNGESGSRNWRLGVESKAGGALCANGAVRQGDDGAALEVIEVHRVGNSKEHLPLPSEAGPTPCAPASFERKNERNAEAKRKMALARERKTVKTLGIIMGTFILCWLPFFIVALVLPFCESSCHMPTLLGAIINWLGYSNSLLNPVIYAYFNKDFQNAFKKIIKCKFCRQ
# Procedure: (§1) All experiments were performed in HEK-293 cells, which stably express the human 5-HT1A, 5-HT6, 5-HT7b, and D2L receptors, or using CHO-K1 cells expressing human serotonin 5-HT2A receptor, following the previously reported procedures. For displacement studies, the following radioligands (PerkinElmer, USA) at given concentrations were used at: 2.5 nM [^3H]-8-OH-DPAT (135.2 Ci/ mmol); 1 nM [^3H]-ketanserin (53.4 Ci/mmol); 2 nM [^3H]-LSD (83.6 Ci/mmol); 0.8 nM [^3H]-5-CT (39.2 Ci/mmol) or 2.5 nM [^3H]-raclopride (76.0 Ci/mmol) for 5-HT1A, 5-HT2A, 5-HT6, 5-HT7b and D2L receptors, respectively. All tested compounds were evaluated in triplicate at 7 concentrations (10^−10–10^−4 M). The inhibition constants (Ki) were calculated from the Cheng–Prusoff equation [25]. A detailed description is reported in the Supporting Information.
# (§2) 1. Procedure for radioligand binding assay
# (§3) All experiments were carried out according to the previously published procedures. HEK293 cells stably expressing human 5-HT1A, 5-HT6, 5-HT7b and D2L receptors (prepared with the use of Lipofectamine 2000) or CHO-K1 cells with plasmid containing the sequence coding for the human serotonin 5-HT2A receptor (Perkin Elmer) were maintained at 37 °C in a humidified atmosphere containing 5% CO2 and grown in Dulbecco’s Modified Eagle’s Medium containing 10% dialyzed fetal bovine serum and 500 μg/ml G418 sulfate. For membrane preparation, cells were cultured in 150 cm2 flasks, grown to 90% confluence, washed twice with pre-warmed to 37 °C phosphate buffered saline (PBS) and centrifuged (200 × g) in PBS containing 0.1 mM EDTA and 1 mM dithiothreitol. Prior to membrane preparation, pellets were stored at –80 °C. […]
# (§4) The process of equilibration was terminated by rapid filtration through Unifilter plates with a 96-well cell harvester and radioactivity retained on the filters was quantified on a Microbeta plate reader (PerkinElmer, USA). […] The inhibition constants (Ki) were calculated from the Cheng-Prusoff equation [4].
# [3] = target: T2, human serotonin 5-HT2A receptor (Homo sapiens, UniProt P28223); assay: Radioligand binding, [3H]-ketanserin displacement, CHO-K1 cells; conditions: mean ± SEM, three independent binding experiments; read-out: Ki [nM] 5-HT2AR
# T2 construct: host or cells: CHO-K1
# T2 sequence (P28223 whole entry): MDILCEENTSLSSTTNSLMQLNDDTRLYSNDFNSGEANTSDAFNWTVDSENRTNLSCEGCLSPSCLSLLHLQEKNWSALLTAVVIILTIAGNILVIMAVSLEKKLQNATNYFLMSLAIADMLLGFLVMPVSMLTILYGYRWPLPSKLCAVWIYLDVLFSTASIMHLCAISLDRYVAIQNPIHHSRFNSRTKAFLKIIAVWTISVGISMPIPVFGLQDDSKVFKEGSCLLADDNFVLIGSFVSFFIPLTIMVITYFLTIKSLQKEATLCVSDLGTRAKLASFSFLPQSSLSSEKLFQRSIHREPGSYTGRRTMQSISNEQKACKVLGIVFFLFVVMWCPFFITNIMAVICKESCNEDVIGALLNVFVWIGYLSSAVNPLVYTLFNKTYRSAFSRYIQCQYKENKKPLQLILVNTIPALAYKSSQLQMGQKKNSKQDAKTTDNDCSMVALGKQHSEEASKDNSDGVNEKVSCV
# [4] = target: T3, human 5-HT7b receptor (Homo sapiens, UniProt P34969); assay: Radioligand binding, [3H]-5-CT displacement, HEK-293 cells; conditions: mean ± SEM, three independent binding experiments; read-out: Ki [nM] 5-HT7R
# T3 construct: expressed in transfected cells
# T3 sequence (P34969 1-432 limits assumed): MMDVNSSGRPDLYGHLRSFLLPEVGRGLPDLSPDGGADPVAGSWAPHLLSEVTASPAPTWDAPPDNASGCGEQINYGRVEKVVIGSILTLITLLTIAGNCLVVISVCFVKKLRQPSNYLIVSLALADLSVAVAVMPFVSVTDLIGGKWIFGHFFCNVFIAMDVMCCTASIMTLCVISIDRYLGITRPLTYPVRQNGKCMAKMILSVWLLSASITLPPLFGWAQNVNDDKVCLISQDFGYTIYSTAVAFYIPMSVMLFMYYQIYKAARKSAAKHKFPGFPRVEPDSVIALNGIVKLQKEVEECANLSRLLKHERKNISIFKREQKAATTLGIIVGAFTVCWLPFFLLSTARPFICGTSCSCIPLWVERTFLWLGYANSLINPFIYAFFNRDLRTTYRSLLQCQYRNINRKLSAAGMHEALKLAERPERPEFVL
# Procedure: as §1, §2, §3, §4
Structure (SMILES),neurite length [1] [μm],Ki [2] [nM],Ki [3] [nM],Ki [4] [nM],reduction in neurite growth ([1]; vs vehicle-treated cells) [%],functional profile at the 5-HT6R-elicited Cdk5 pathway ([1]; neurite growth)
"O=S(=O)(c1cccc(N2CCNCC2)c1)N1Cc2ccccc2C1 [3e, 2-{[3-(Piperazin-1-yl)phenyl]sulfonyl}isoindoline]",11.81 ± 2.61,951 ± 120,128 ± 37,4530 ± 327,,
"O=S(=O)(c1cccc(N2CCNCC2)c1)N1Cc2cccc(Cl)c2C1 [3f, 4-Chloro-2-{[3-(piperazin-1-yl)phenyl]sulfonyl}isoindoline]",10.92 ± 0.89,385 ± 71,170 ± 32,10700 ± 1030,,
"O=S(=O)(c1cccc(N2CCNCC2)c1)N1Cc2cccc(Br)c2C1 [3g, 4-Bromo-2-{[3-(piperazin-1-yl)phenyl]sulfonyl}isoindoline]",8.08 ± 0.84,680 ± 33,159 ± 25,8800 ± 854,50,potent inverse agonist
